For test [1], the target named is T1, Tyrosine-protein phosphatase non-receptor type 1 (Homo sapiens) (UniProt P18031).
T1 sequence (whole entry): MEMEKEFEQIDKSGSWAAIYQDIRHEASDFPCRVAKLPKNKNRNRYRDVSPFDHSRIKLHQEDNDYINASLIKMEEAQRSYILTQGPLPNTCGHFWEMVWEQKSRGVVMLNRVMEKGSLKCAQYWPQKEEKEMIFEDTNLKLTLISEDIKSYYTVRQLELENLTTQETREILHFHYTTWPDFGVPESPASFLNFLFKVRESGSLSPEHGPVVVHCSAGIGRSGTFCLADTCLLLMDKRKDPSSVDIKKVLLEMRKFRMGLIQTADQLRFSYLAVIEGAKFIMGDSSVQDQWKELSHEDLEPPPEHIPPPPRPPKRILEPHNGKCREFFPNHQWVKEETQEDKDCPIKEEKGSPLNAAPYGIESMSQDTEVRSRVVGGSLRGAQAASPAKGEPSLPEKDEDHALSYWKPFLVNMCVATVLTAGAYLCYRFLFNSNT
As to the kind of experiment: Binding affinity to purified recombinant PTP1B using streptaive HRP at 20 uM after 1 hr by Western blotting analysis. In general terms: In western blotting, separated proteins are transferred to a membrane and probed.

For test [2], the target named is T1, Tyrosine-protein phosphatase non-receptor type 1 (Homo sapiens). The test can be described thus: Binding affinity to purified recombinant PTP1B using streptaive HRP at 200 uM after 1 hr by Western blotting analysis.
Test [3] has as its target Protein tyrosine phosphatase type IVA 3 (Homo sapiens) (UniProt O75365). As to the kind of experiment: Binding affinity to purified recombinant PTP4A3 using streptaive HRP at 20 uM after 1 hr by Western blotting analysis.
Test [4] relates to Escherichia coli. The test can be described thus: Binding affinity to PTP4A3 in Escherichia coli lysate at 0.8 mM after 1 hr by Western blotting analysis in presence of alpha-bromobenzylphosphonate.
The test system of test [5] is Escherichia coli. As to the kind of experiment: Binding affinity to PTP1B in Escherichia coli lysate at 0.8 mM after 1 hr by Western blotting analysis.
The target of test [6] is Protein tyrosine phosphatase type IVA 3 (Homo sapiens) (UniProt O75365). The test can be described thus: Binding affinity to purified recombinant PTP4A3 using streptaive HRP at 200 uM by Western blotting analysis.
Chain of Protein tyrosine phosphatase type IVA 3 (Homo sapiens) (O75365 whole entry): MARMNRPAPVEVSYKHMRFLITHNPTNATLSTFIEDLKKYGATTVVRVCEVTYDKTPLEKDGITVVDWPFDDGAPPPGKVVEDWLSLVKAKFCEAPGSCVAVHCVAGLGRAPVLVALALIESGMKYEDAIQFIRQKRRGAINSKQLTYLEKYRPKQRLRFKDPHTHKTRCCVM
Test [7] deals with T2, Tyrosine-protein phosphatase non-receptor type 1 (Homo sapiens), P18031 [C215S].
T2 sequence (whole entry): T1 sequence (whole entry) with C215S
The test can be described thus: Binding affinity to purified recombinant dPTP1B C215S mutant using streptaive HRP at 200 uM after 1 hr by Western blotting analysis.

Test [8] deals with Jurkat. The test can be described thus: Binding affinity to PTP1B in human Jurkat cell lysate at 0.8 mM after 1 hr by Western blotting analysis in presence of alpha-bromobenzylphosphonate. The test is classed as cell-free.

SMILES strings stand for the structures. Where a chain is given by its changes, count along the chain named. The source made the active and inactive calls. The rule behind the calls is not given here.

Turning to `NC(=O)[C@H](Cc1ccc(OP(=O)(O)O)c(C(F)F)c1)NC(=O)[C@H](CC(=O)O)NC(=O)Cc1ccc(C(F)(F)P(=O)(O)O)cc1`, the result in test [1], in test [2], in test [4], in test [5], in test [6] and in test [8] was Active. The outcome in test [3] and in test [7] was inactive.

These data come from ChEMBL document CHEMBL1781900, “Synthesis and peptide incorporation of an unnatural amino acid containing activity-based probe for protein tyrosine phosphatases” (Bioorg Med Chem Lett, 2009).
